According to patent US11466047B2, “Cyclic di-nucleotide compounds as sting agonists” (Merck Sharp & Dohme Corp., priority 2017, dated 2022):
Like-named read-outs stand apart in the source and are kept apart here.

Key:
full-length HAQ STING = full-length HAQ STING (Homo sapiens (Human), UniProt Q86WV6, G230A/H232R/R293Q/R71H); assay: 3H-cGAMP filtration binding assay (HAQ STING); conditions: competition with tritiated cGAMP ligand, HAQ STING membrane
Text: The ability of compounds to bind STING is quantified by the ability to compete with tritiated cGAMP ligand for human STING receptor membrane using a radioactive filter-binding assay. The binding assay employs STING receptor obtained from Hi-Five cell membranes overexpressing full-length HAQ STING prepared in-house and tritiated cGAMP ligand also purified in-house.
(§1) The ability of compounds to bind STING is quantified by their ability to compete with tritiated cGAMP ligand for human STING receptor membrane using a radioactive filter-binding assay. The binding assay employs STING receptor obtained from Trichoplusia ni cell membranes (T.ni; Expression Systems, cat #94-002F, www.expressionsystems.com) overexpressing full-length HAQ STING and tritiated cGAMP ligand.
The basic HAQ STING filtration assay protocol is as follows:
The compounds were serially titrated by the Hamilton STARPlus CORE in a 96-well plate (Greiner, #651201) using a 1:3 ten-point dose response format. After compound preparation, a 2.2 ug/ml working concentration of STING membrane (SEQ. ID. No. 1) was prepared by diluting concentrated membrane into assay buffer (lx PBS; Invitrogen #SH30028.02) and douncing 7× using a manual tissue homogenizer (Wheaton, #357546). 148 uL of prepared membrane was then manually added to each well of a 96-well deep-well polypropylene plate (Fisher Scientific, #12-566-121). Following membrane addition, 2 uL of either titrated test compound, DMSO control (Sigma #276855), or cold cGAMP control was added to the appropriate wells using a BIOMEK FX. Compound and membrane then preincubated for 60 min at RT to allow compound binding to equilibrate. Following equilibration, 8 nM of [^3H]c-GAMP ligand was prepared by diluting into assay buffer, and 50 uL of this working stock was then manually added to each well of the assay plate. Plates were then incubated at RT for 60 min, and the contents of each assay plate were then filtered through a 96-well GF/B filter plate (PerkinElmer, #6005250) using a TOMTEC MACH III Cell Harvester equipped with 20 mM HEPES buffer (Fisher Scientific, #BP299500). The filter plates were then dried at 55° C. for 30 min using a pressurized oven before 30 uL of ULTIMA GOLD F scintillate was added to each well. Tritium levels for each reaction well were then measured using a PerkinElmer TopCount plate reader.
(§2) After normalization to controls, the percent activity for each compound concentration was calculated by measuring the amount of remaining radioactivity. The plot of percent activity versus the log of compound concentration was fit with a 4-parameter dose response equation to calculate EC50 values.

full-length WT STING = full-length WT STING (Homo sapiens (Human), UniProt Q86WV6, H232R); assay: 3H-cGAMP filtration binding assay (WT STING); conditions: WT STING membrane
Description: as §1, with “#94-002F,” for “#94-002F, www.expressionsystems.com)”, “WT” for “HAQ”
The basic WT STING filtration assay protocol is as follows:
16 nM of [^3H] c-GAMP ligand was prepared by diluting into assay buffer, and 50 uL of this working stock was manually added to each well of the assay plate. After ligand addition, 2 uL of either titrated test compound, DMSO control (Sigma #276855), or cold cGAMP control was added to the appropriate wells using a BIOMEK FX. The serially titrated compound was prepared on a Hamilton STARPlus CORE in a 96-well plate (Greiner, #651201) using a 1:3 ten-point dose response format. Following compound addition, a 2.2 ug/ml working concentration of STING membrane (SEQ. ID. No. 3) was prepared by diluting concentrated membrane into assay buffer (1×PBS; Invitrogen #SH30028.02) and douncing 7× using a manual tissue homogenizer (Wheaton, #357546). 148 uL of this prepared membrane was then manually added to each well of a 96-well deep-well polypropylene plate (Fisher Scientific, #12-566-121). Compound, ligand, and membrane then incubated for 60 min at RT before the contents of each assay plate were filtered through a 96-well GF/B filter plate (PerkinElmer, #6005250) using a TOMTEC MACH III Cell Harvester equipped with 20 mM HEPES buffer (Fisher Scientific, #BP299500). The filter plates were then dried at 55° C. for 30 min using a pressurized VWR oven before 30 uL of ULTIMA GOLD F scintillate was added to each well. Tritium levels for each reaction well were then measured using a PerkinElmer TopCount plate reader.
as §2

THP1 cells = assay: IFN-β secretion in THP1 cell culture (5 h); assay type: cell-based, human; conditions: 30 μM compound, relative to 2′3′-cGAMP at 30 μM; for activation at 30 µM: Homo sapiens, THP-1, 5 h, read-out: % Effect at 30 μM relative to 2′3′-cGAMP
Description: The ability of compounds to stimulate the secretion of interferon-beta from THP1 cells was measured using a human IFN-β AlphaLISA kit (Perkin Elmer, Cat. No. AL265F). The basic protocol is as follows:
A Labcyte Echo 550 acoustic dispenser was used to transfer 120 nL of compound dissolved in DMSO into the wells of an empty, sterile 384-well microplate, (Corning, Cat. No. 3712). THP1 cells (American Type Culture Collection, Cat. No. TIB202) previously frozen in Recovery Medium (Life Technologies, Cat. No. 12648-010) were thawed and immediately diluted 10-fold into 37° C. assay medium (RPMI 1640+L-Glutamine & phenol red, Life Technologies, Cat. No. 11875-085; 0.5% heat inactivated fetal bovine serum, Sigma Aldrich, Cat. No. F4135; 1 mM Sodium Pyruvate, Life Technologies, Cat. No. 11360-070; lx non-essential amino acids; Life Technologies, Cat. No. 11140-050). The cell viability and count was ascertained using a Beckman Coulter V-Cell XR cell counter. The cell suspension was centrifuged at 200×g for 5 min at RT. Cells were resuspended to a density of 0.8×10^6/mL in 37° C. assay medium. Subsequent liquid transfers were performed using either a Matrix electronic multichannel pipette or an Agilent Bravo Automated Liquid Handling Platform.
The assay was started by dispensing 40 μL of the previously prepared cell suspension into the wells of the plate containing compounds. After 5 h incubation at 37° C., 5% CO2 in a humidified atmosphere, the plate of cells and compounds was centrifuged at 200×g for 5 min at RT. From each well, 5 μL of supernatant was transferred into corresponding wells of a white 384-well plate (Perkin Elmer, Cat. No. 6005620). To these supernatant-containing wells was added 10 μL of 5× Anti-Analyte Acceptor beads (50 μg/mL of AlphaLISA HiBlock Buffer) and incubated for 30 min at RT while shaking on an orbital plate shaker. To each well was added 10 μL of 5× Biotinylated Antibody Anti-analyte (5 nM in AlphaLISA HiBlock Buffer) and incubated on an orbital plate shaker for 60 min at RT or overnight at 4° C. To each well was added 25 μL of 2×SA-Donor beads (80 μg/mL in AlphaLISA HiBlock Buffer) and incubated for 30-45 min at RT in the dark while shaking on an orbital plate shaker. The plate was then read on a Perkin Elmer Envision (λex=680 nm, λem=570 nm). The percent effect of the AlphaLISA signal at each compound concentration was calculated based on 30 uM cGAMP positive controls and 0.3% DMSO negative controls. The plot of percent effect versus the log of compound concentration was fit with a 4-parameter concentration response equation to calculate EC50 values. The test compounds were tested at concentrations 30000, 10000, 3333, 1111, 370.4, 123.4, 41.2, 13.7, 4.6, and 1.5 nM with 0.3% residual DMSO. The control compound, cGAMP was tested at concentrations 100000, 33333, 11111, 3704, 1235, 412, 137, 46, and 15 nM with 0.3% residual DMSO.
Compounds of the disclosure were evaluated for IFN-β secretion in THP1 cell culture as described above. The following table tabulates the biological data for these compounds as percent activation relative to 2′3′-cGAMP at the 30 μM concentration.

[1] = EC50, competition with tritiated cGAMP ligand
[2] = competition with tritiated cGAMP ligand, read-out: EC50

full-length WT STING, sequence (Q86WV6 whole entry, looked up, stated change not applied): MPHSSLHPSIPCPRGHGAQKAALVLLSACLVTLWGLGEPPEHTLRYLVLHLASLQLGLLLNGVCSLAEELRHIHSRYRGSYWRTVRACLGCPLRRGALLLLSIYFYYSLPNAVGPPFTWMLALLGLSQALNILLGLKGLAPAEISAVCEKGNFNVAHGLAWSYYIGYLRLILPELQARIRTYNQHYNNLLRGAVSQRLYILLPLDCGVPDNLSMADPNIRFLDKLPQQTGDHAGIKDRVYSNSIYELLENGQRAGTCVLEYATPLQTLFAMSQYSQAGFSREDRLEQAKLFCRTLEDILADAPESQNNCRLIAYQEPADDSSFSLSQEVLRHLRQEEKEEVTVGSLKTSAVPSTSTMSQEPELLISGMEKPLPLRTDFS
full-length HAQ STING, sequence (Q86WV6 whole entry, looked up, stated change not applied): as above

| SMILES | EC50 (full-length HAQ STING) [nM] | EC50 (full-length WT STING; [1]) [nM] | % Effect at 30 μM relative to 2′3′-cGAMP (THP1 cells) [%] | EC50 (full-length WT STING; [2]) [nM] | activation at 30 µM (THP1 cells) [%] |
| --- | --- | --- | --- | --- | --- |
| Nc1nc2c(ncn2[C@@H]2O[C@@H]3COP(=S)(S)O[C@H]4[C@H](F)[C@H](n5cnc6c(N)ncnc65)O[C@@H]4COP(O)(=S)O[C@@H]2[C@@H]3F)c(=O)[nH]1 (single isomer, unassigned) [Example 2] | 2 | 9 | 175 | – | – |
| Nc1nc2c(ncn2[C@@H]2S[C@@H]3COP(=S)(S)O[C@H]4[C@H](F)[C@H](n5cnc6c(N)ncnc65)O[C@@H]4COP(O)(=S)O[C@@H]2[C@@H]3O)c(=O)[nH]1 (stereo partly drawn) [Example 16, 2-amino-9-[(5R,7R,8R,12aR,14R,15S,15aR,16S)-14-(6-amino-9H-purin-9-yl)-15-fluoro-10,16-dihydroxy-2-sulfanyl-2,10-disulfidooctahydro-12H-5,8-methanofuro[3,2-l][1,3,9,11,6,2,10]tetraoxathiadiphosphacyclotetradecin-7-yl]-1,9-dihydro-6H-purin-6-one] | 5 | – | – | 18 | 107 |
| Nc1nc2c(ncn2[C@@H]2S[C@@H]3COP(=S)(S)O[C@H]4[C@H]5OC[C@]4(COP(=O)(O)O[C@@H]2[C@@H]3O)O[C@H]5n2cnc3c(N)ncnc32)c(=O)[nH]1 (stereo partly drawn) [Example 21, 2-amino-9-[(5R,7R,8R,12aR,14R,15R, 15aS,18S)-14-(6-amino-9H-purin-9-yl)-10,18-dihydroxy-10-oxido-2-sulfanyl-2-sulfidohexahydro-14H-15,12a-(epoxymethano)-5,8-methanofuro[3,2-1][1,3,9,11,6,2,10]tetraoxathiadiphosphacyclotetradecin-7(12H)-yl]-1,9-dihydro-6H-purin-6-one] | 217 | – | – | 1550 | 45 |
| Nc1nc2c(ncn2[C@@H]2O[C@@H]3COP(=S)(S)O[C@H]4C[C@H](c5cnc6c(N)ncnn56)O[C@@H]4COP(O)(=S)O[C@@H]2C3)c(=O)[nH]1 (single isomer, unassigned) [Example 8] | 7 | – | 110 | 13 | – |
| Nc1nc2c(ncn2[C@@H]2O[C@@H]3COP(=S)(S)O[C@H]4C[C@H](n5ccc6c(N)ncnc65)O[C@@H]4COP(O)(=S)O[C@@H]2C3)c(=O)[nH]1 (single isomer, unassigned) [Example 5] | < 1 | – | – | 8 | 95 |
| Nc1nc2c(ncn2[C@@H]2O[C@@H]3COP(=S)(S)O[C@H]4[C@H](F)[C@H](n5cnc6c(N)ncnc65)O[C@@H]4COP(O)(=S)O[C@@H]2[C@@H]3F)c(=O)[nH]1 (single isomer, unassigned) [Example 1] | < 1 | < 1 | – | – | 165 |
| Nc1nc2c(ncn2[C@@H]2O[C@@H]3COP(=S)(S)O[C@H]4C[C@H](n5cnc6c(N)ncnc65)O[C@@H]4COP(O)(=S)O[C@@H]2C3)c(=O)[nH]1 (single isomer, unassigned) [Example 3] | 2 | – | – | 4 | 128 |
| Nc1nc2c(ncn2[C@@H]2O[C@@H]3COP(=S)(S)O[C@H]4[C@H]5OC[C@]4(COP(=O)(O)O[C@@H]2[C@H]3F)O[C@H]5n2cnc3c(N)ncnc32)c(=O)[nH]1 (stereo partly drawn) [Example 17, 2-amino-9-[(5R,7R,8S,12aR,14R,15R,15aS,18S)-14-(6-amino-9H-purin-9-yl)-18-fluoro-10-hydroxy-10-oxido-2-sulfanyl-2-sulfidohexahydro-14H-15,12a-(epoxymethano)-5,8-methanofuro[3,2-l][1,3,6,9,11,2,10]pentaoxadiphosphacyclotetradecin-7(12H)-yl]-1,9-dihydro-6H-purin-6-one] | 15 | – | – | – | 145 |
| Nc1nc2c(ncn2[C@@H]2O[C@@H]3COP(=S)(S)O[C@H]4C[C@H](n5cnc6c(N)ncnc65)O[C@@H]4COP(=O)(O)O[C@@H]2C3)c(=O)[nH]1 (stereo partly drawn) [Example 18, 2-amino-9-[(5S,7R,8R,12aR,14R,15aS)-14-(6-amino-9H-purin-9-yl)-10-hydroxy-10-oxido-2-sulfanyl-2-sulfidooctahydro-12H-5,8-methanofuro[3,2-1][1,3,6,9,11,2,10]pentaoxadiphosphacyclotetradecin-7-yl]-1,9-dihydro-6H-purin-6-one] | – | – | – | 1 | 153 |
